Reference: PMC12476087, “Loading of Dicarboxylatoplatinum(II)‐NHC Complexes in Bacterial Ghosts as an Advanced Development in Cancer Therapy” (Archiv Der Pharmazie, 2025)

Experiment: Stability in RPMI 1640 cell culture medium (HPLC‐MS)
Assay type: physicochemical
Settings: RPMI 1640 without FCS, 1 h incubation, extracted ion chromatograms
Procedure: Additional stability studies in aqueous media and RPMI 1640 (without FCS) were carried out using RP‐HPLC‐MS. For this purpose, 0.5 mM solutions of complexes 1 and 2 were prepared in Milli‐Q water and RPMI 1640. Samples were analyzed by HPLC‐MS immediately after preparation and at selected time points during 24 h of incubation at rt. HPLC‐MS measurements were performed on Agilent 1260 system hyphenated to an MS Single Quad detector from Agilent with ESI (LC‐MSD from Agilent Technologies, Santa Clara, CA, USA). As stationary phase, a Gemini C18 110 Å; 150 × 4.6 mm; 3.0 µm particles (Phenomenex Ltd.; Aschaffenburg, Germany) column was employed and equipped with a 4 × 3 mm guard column of the identical material. The mobile phase flow was set to 0.8 mL/min; and consisted of a mixture of water (solvent A) – MeOH (solvent B) using gradient elution (0 min 5% B; 3 min 5% B; 17 min 98% B; 20 min stop; post time 10 min). The oven temperature was maintained at 30°C and the MS analysis was performed with split flow 1:5 of the eluate in positive ionization mode (capillary voltage 4.5 kV; source temperature 320°C; dry gas 10 L/min; nebulizer gas pressure 30 psi, scan range m/z 50–1500). The injection volume of the sample solution (V sample) was set to 10 µL. Sample degradation was evaluated by integration of the extracted ion chromatograms at the indicated m/z ± 0.5 (based on the monoisotopic peaks).

With `CCN1[C]([Pt]([O]C(C)=O)([O]C(C)=O)[SH](C)(C)=O)N(CC)c2ccccc21` [Compound 1, (SP‐4‐2)‐Diacetato(1,3‐diethylbenzimidazol‐2‐ylidene)(dimethylsulfoxide)platinum(II)] the “concentration remaining in RPMI 1640” value was “approximately 37%”.
For “(SP‐4‐2)‐Diacetatobis(1,3‐diethylbenzimidazol‐2‐ylidene)platinum(II) [Compound 2]”, the “concentration remaining in RPMI 1640” value was ~7%.
